Source: patent publication US20240116985A1, “STAPLED PEPTIDES AND METHODS THEREOF” (priority 2020, published 2024)

Biological target: T1, full-length beta-Catenin (Uniprot ID P35222) (Homo sapiens, UniProt P35222)
T1 construct: 10 nM full-length beta-Catenin (Uniprot ID P35222)
T1 sequence (P35222 1-781): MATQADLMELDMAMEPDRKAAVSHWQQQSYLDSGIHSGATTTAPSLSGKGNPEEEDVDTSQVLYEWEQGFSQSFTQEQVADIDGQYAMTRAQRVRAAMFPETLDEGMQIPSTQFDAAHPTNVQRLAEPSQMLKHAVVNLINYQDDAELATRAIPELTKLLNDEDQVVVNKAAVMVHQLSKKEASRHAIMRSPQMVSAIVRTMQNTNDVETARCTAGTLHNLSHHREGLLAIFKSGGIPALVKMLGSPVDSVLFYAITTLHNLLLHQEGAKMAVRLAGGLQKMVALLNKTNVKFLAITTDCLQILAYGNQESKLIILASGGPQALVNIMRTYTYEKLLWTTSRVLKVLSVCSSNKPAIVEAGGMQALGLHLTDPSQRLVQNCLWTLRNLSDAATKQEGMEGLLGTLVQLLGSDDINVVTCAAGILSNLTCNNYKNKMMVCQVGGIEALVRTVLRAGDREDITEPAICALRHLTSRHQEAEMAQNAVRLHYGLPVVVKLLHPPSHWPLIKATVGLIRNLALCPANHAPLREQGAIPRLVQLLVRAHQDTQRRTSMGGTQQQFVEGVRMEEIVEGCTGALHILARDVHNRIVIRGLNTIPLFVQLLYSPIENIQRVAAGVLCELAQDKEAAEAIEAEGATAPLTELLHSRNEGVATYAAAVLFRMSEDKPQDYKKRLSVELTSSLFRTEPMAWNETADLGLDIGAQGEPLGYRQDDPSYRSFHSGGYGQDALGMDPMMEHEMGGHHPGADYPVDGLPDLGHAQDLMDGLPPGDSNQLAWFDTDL
Assay: Fluorescence polarization IC50 (beta-catenin / 5FAM-TCF4 10-53 competition)
Type: binding
Settings: fluorescence polarization; read-out: beta-Catenin FP IC50

SMILES	IC50
CC(=O)N1CCC[C@]12CC=CCCCC1(CCCC=CCCCOC(=O)N3CC[C@@](C(=O)N[C@@H](Cc4ccsc4)C(=O)N[C@@H](Cc4csc5ccccc45)C(=O)N[C@@H](CCC(N)=O)C(N)=O)(C3)NC(=O)[C@H](CC(C)C)NC(=O)[C@H](Cc3ccccc3)NC(=O)[C@H](CC(=O)N3CCN(C)CC3)NC(=O)[C@H](C)NC(=O)[C@H](CC(=O)O)NC(=O)[C@H](CC(=O)O)NC1=O)NC(=O)[C@H](CC(C)(C)C)NC(=O)[C@H](CC(=O)O)NC2=O (stereo partly drawn) [I-1508, Ac-PL3-Asp-Npg-B5-Asp-Asp-Ala-MePpzAsn-Phe-Leu-PyrS2-3Thi-BztA-Gln-NH2]	87 nM
CC(=O)N1CCC[C@]12CC=CCCCC1(CCCC=CCCCOC(=O)N3CC[C@@](C(=O)N[C@@H](Cc4ccsc4)C(=O)N[C@@H](Cc4csc5ccccc45)C(=O)N[C@@H](CCO)C(N)=O)(C3)NC(=O)[C@H](CC(C)C)NC(=O)[C@H](Cc3ccccc3)NC(=O)[C@H](C)NC(=O)[C@H](C)NC(=O)[C@H](CC(=O)O)NC(=O)[C@H](CC(=O)O)NC1=O)NC(=O)[C@H](CO)NC(=O)[C@H](CC(=O)O)NC2=O (stereo partly drawn) [I-1514, Ac-PL3-Asp-Ser-B5-Asp-Asp-Ala-Ala-Phe-Leu-PyrS2-3Thi-BztA-Hse-NH2]	27 nM
CC(=O)N1CCC[C@]12CC=CCCCC1(CCCC=CCCCOC(=O)N3CC[C@@](C(=O)N[C@@H](Cc4ccsc4)C(=O)N[C@@H](Cc4csc5ccccc45)C(=O)N[C@@H](CCC(N)=O)C(N)=O)(C3)NC(=O)[C@H](CC(N)=O)NC(=O)[C@H](Cc3ccccc3)NC(=O)[C@H](C)NC(=O)[C@H](C)NC(=O)[C@H](CC(N)=O)NC(=O)[C@H]([C@@H](C)O)NC1=O)NC(=O)[C@H](CC(C)(C)C)NC(=O)[C@H](CC(=O)O)NC2=O (stereo partly drawn) [I-1559, Ac-PL3-Asp-Npg-B5-Thr-Asn-Ala-Ala-Phe-Asn-PyrS2-3Thi-BztA-Gln-NH2]	9680 nM
CC(=O)N1CCC[C@]12CC=CCCCC1(CCCC=CCCCOC(=O)N3CC[C@@](C(=O)N[C@@H](Cc4ccsc4)C(=O)N[C@@H](Cc4csc5ccccc45)C(=O)N[C@@H](CCC(N)=O)C(N)=O)(C3)NC(=O)[C@H](CC(N)=O)NC(=O)[C@H](Cc3ccccc3)NC(=O)[C@H](C)NC(=O)[C@H](C)NC(=O)[C@H](CC(N)=O)NC(=O)[C@H](CCC(N)=O)NC1=O)NC(=O)[C@H](CC(C)(C)C)NC(=O)[C@H](CC(=O)O)NC2=O (stereo partly drawn) [I-1560, Ac-PL3-Asp-Npg-B5-Gln-Asn-Ala-Ala-Phe-Asn-PyrS2-3Thi-BztA-Gln-NH2]	368 nM
CC(=O)N1CCC[C@]12CC=CCCCC1(CCCC=CCCCOC(=O)N3CC[C@@](C(=O)N[C@@H](Cc4ccsc4)C(=O)N[C@@H](Cc4csc5ccccc45)C(=O)N[C@@H](CCC(N)=O)C(N)=O)(C3)NC(=O)[C@H](CC(N)=O)NC(=O)[C@H](Cc3ccccc3)NC(=O)[C@H](C)NC(=O)[C@H](C)NC(=O)[C@H](CC(N)=O)NC(=O)[C@H](CO)NC1=O)NC(=O)[C@H](CC(C)(C)C)NC(=O)[C@H](CC(=O)O)NC2=O (stereo partly drawn) [I-1561, Ac-PL3-Asp-Npg-B5-Ser-Asn-Ala-Ala-Phe-Asn-PyrS2-3Thi-BztA-Gln-NH2]	2600 nM
CC(=O)N1CCC[C@]12CC=CCCCC1(CCCC=CCCCOC(=O)N3CC[C@@](C(=O)N[C@@H](Cc4ccsc4)C(=O)N[C@@H](Cc4csc5ccccc45)C(=O)N[C@@H](CCC(N)=O)C(N)=O)(C3)NC(=O)[C@H](CC(N)=O)NC(=O)[C@H](Cc3ccccc3)NC(=O)[C@H](C)NC(=O)[C@H](C)NC(=O)[C@H](CC(N)=O)NC(=O)[C@H](CC(C)C)NC1=O)NC(=O)[C@H](CC(C)(C)C)NC(=O)[C@H](CC(=O)O)NC2=O (stereo partly drawn) [I-1562, Ac-PL3-Asp-Npg-B5-Leu-Asn-Ala-Ala-Phe-Asn-PyrS2-3Thi-BztA-Gln-NH2]	5020 nM

More lines, now with the values ahead:

IC50	SMILES
11 nM	CC(=O)N1CCC[C@]12CC=CCCCC1(CCCC=CCCCOC(=O)N3CC[C@@](C(=O)N[C@@H](Cc4ccsc4)C(=O)N[C@@H](Cc4csc5ccccc45)C(=O)N[C@@H](CCC(N)=O)C(N)=O)(C3)NC(=O)[C@H](CC(C)C)NC(=O)[C@H](Cc3ccccc3)NC(=O)[C@H](C)NC(=O)[C@H](C)NC(=O)[C@H](CC(=O)O)NC(=O)[C@H](CC(=O)O)NC1=O)NC(=O)[C@H](Cc1ccccc1)NC(=O)[C@H](CC(=O)O)NC2=O (stereo partly drawn) [I-1509, Ac-PL3-Asp-Phe-B5-Asp-Asp-Ala-Ala-Phe-Leu-PyrS2-3Thi-BztA-Gln-NH2]
23 nM	CC(=O)N1CCC[C@]12CC=CCCCC1(CCCC=CCCCOC(=O)N3CC[C@@](C(=O)N[C@@H](Cc4ccsc4)C(=O)N[C@@H](Cc4csc5ccccc45)C(=O)N[C@@H](CCO)C(N)=O)(C3)NC(=O)[C@H](CC(C)C)NC(=O)[C@H](Cc3ccccc3)NC(=O)[C@H](C)NC(=O)[C@H](C)NC(=O)[C@H](CC(=O)O)NC(=O)[C@H](CC(=O)O)NC1=O)NC(=O)[C@H](CC(N)=O)NC(=O)[C@H](CC(=O)O)NC2=O (stereo partly drawn) [I-1518, Ac-PL3-Asp-Asn-B5-Asp-Asp-Ala-Ala-Phe-Leu-PyrS2-3Thi-BztA-Hse-NH2]
42 nM	CC(=O)N1CCC[C@]12CC=CCCCC1(CCCC=CCCCCCC[C@@](C)(C(=O)N[C@@H](Cc3ccccc3)C(=O)N[C@@H](Cc3csc4ccccc34)C(=O)N[C@@H](CCC(N)=O)C(N)=O)NC(=O)[C@H](CC(C)C)NC(=O)[C@H](Cc3ccccc3)NC(=O)[C@H](C)NC(=O)[C@H](C)NC(=O)[C@H](CCC(=O)O)NC(=O)[C@H](CC(=O)O)NC1=O)NC(=O)[C@H](CCC(C)C)NC(=O)[C@H](CC(=O)O)NC2=O (stereo partly drawn) [I-1536, Ac-PL3-Asp-Hleu-B5-Asp-Glu-Ala-Ala-Phe-Leu-S8-Phe-BztA-Gln-NH2]
17 nM	CC(=O)N1CCC[C@]12CC=CCCCC1(CCCC=CCCCCCC[C@@](C)(C(=O)N[C@@H](Cc3ccccc3)C(=O)N[C@@H](Cc3csc4ccccc34)C(=O)N[C@@H](CCC(N)=O)C(N)=O)NC(=O)[C@H](CCC(N)=O)NC(=O)[C@H](Cc3ccccc3)NC(=O)[C@H](C)NC(=O)[C@H](C)NC(=O)[C@H](CCC(=O)O)NC(=O)[C@H](CC(=O)O)NC1=O)NC(=O)[C@H](CCC(N)=O)NC(=O)[C@H](CC(=O)O)NC2=O (stereo partly drawn) [I-1540, Ac-PL3-Asp-Gln-B5-Asp-Glu-Ala-Ala-Phe-Gln-S8-Phe-BztA-Gln-NH2]
39 nM	CC(=O)N1CCC[C@]12CC=CCCCC1(CCCC=CCCCCCC[C@@](C)(C(=O)N[C@@H](Cc3ccccc3)C(=O)N[C@@H](Cc3csc4ccccc34)C(=O)N[C@@H](CCC(N)=O)C(N)=O)NC(=O)[C@H](CC(C)C)NC(=O)[C@H](Cc3ccccc3)NC(=O)[C@H](C)NC(=O)[C@H](C)NC(=O)[C@H](CCC(=O)O)NC(=O)[C@H](CC(=O)O)NC1=O)NC(=O)[C@H](CCC(N)=O)NC(=O)[C@H](CC(=O)O)NC2=O (stereo partly drawn) [I-1541, Ac-PL3-Asp-Gln-B5-Asp-Glu-Ala-Ala-Phe-Leu-S8-Phe-BztA-Gln-NH2]
678 nM	CC(=O)N1CCC[C@]12CC=CCCCC1(CCCC=CCCCOC(=O)N3CC[C@@](C(=O)N[C@@H](Cc4ccsc4)C(=O)N[C@@H](Cc4csc5ccccc45)C(=O)N[C@@H](CCC(N)=O)C(N)=O)(C3)NC(=O)[C@H](CC(N)=O)NC(=O)[C@H](Cc3ccccc3)NC(=O)[C@H](C)NC(=O)[C@H](C)NC(=O)[C@H](CCC(N)=O)NC(=O)[C@H](CCC(N)=O)NC1=O)NC(=O)[C@H](CC(C)(C)C)NC(=O)[C@H](CC(=O)O)NC2=O (stereo partly drawn) [I-1558, Ac-PL3-Asp-Npg-B5-Gln-Gln-Ala-Ala-Phe-Asn-PyrS2-3Thi-BztA-Gln-NH2]
